The source of these data is US11072633B2 (priority 2016, dated 2021).

Values after ≈ are worked out from the molar mass of the structure shown. Read-outs that look alike come from different tables or passages of the source.

One series concerns the target T1, hERG (Homo sapiens, UniProt Q12809).
T1 construct: expressed in transfected cells
Description: hERG assay (hERG currents in HEK 293 cells). It counts as cell-based. Particulars: hERG stably expressed HEK 293 cells. The protocol: hERG stably expressed HEK 293 cells were seeded at 5×10^5 cells/per 6 cm cell culture dish and induced with doxycycline at 1 μg/mL for 48 hours. Compound at the final concentrations of 30, 10, 3.33, 1.11 and 0.37 μM was applied to the cells accumulatively, post-compound hERG currents were recorded, and IC50 was calculated. Dofetilide was used as a positive control.
To predict the potential cardiotoxic effects of 6-azastroids, human ether-a-go-go related gene (hERG) assay was applied to 100, 107 and 114 (Table 9). Cytotoxicity of 107 was also assessed (Table 10).
(In general: hERG is a cardiac potassium channel; its block is linked to QT prolongation.)

Series [1] can be described thus: in vitro. It counts as in vitro ADME. Particulars: human; for Papp A→B at 2 h, 5 μM: Caco-2, pH 7.4, Papp(A-B). How it is done:
(§1) Caco-2 cells were diluted to 6.86×10^6 cells/mL, dispensed into a 96-well HTS Transwell plate, and cultured for 14 to 18 days. 6-azasteroids at 5 μM was incubated at 37° C. for 2 hours with the Caco-2 cell monolayer in HBSS buffer (10 mM HEPES, pH 7.4) containing 5% BSA. Aliquots from donor sides (apical compartment for Ap→Bl flux, and basolateral compartment for Bl→Ap) and receiver sides (basolateral compartment for Ap→Bl flux, and apical compartment for Bl→Ap) were separated and extracted by acetonitrile or methanol containing appropriate internal standards (IS). The concentration of 6-azasteroid was determined by LC-MS/MS analysis.
(§2) Elution rate: 0.65 mL/min.
(§3) To predict absorption via oral administration, Caco-2 bidirectional permeability assay was performed (Table 8).

In another series the test system is Caco-2 cell line. Description: in vitro. The settings on record: for substrate for P-gp transporter: Caco-2; for intestinal absorption suggested by Papp(A-B): Caco-2, 5 μM. It counts as in vitro ADME. How it is done: as §1, §2, §3
On the technique in general: Caco-2 monolayers are a common model of the intestinal barrier.

Series [2] is described as follows: in vitro. The settings on record: both, human, microsomes, pH 7.4.
The conditions of series [3]: both, human, microsomes, 2 μM, pH 7.4; for Remaining Percentage with NADPH, 0 min: 0 h; for Remaining Percentage with NADPH, 15 min: 0.25 h; for Remaining Percentage with NADPH, 30 min: 0.5 h; for Remaining Percentage with NADPH, 45 min: 0.75 h; for Remaining Percentage with NADPH, 60 min: 1 h.
Series [4] is described as follows: Metabolic stability in human liver microsomes. Particulars: both, pH 7.4. In general terms: Liver microsomes are vesicles of endoplasmic reticulum, rich in cytochrome P450 enzymes.
Series [5] deals with M. tuberculosis CDC1551. Description: microbe, parasite or virus in culture. It is filed as cell-based. Particulars: for Aerobic MIC of CLOF: CLOF with 10 μM 6-azasteroid; for MIC: Mycobacterium tuberculosis, CDC1551.
In series [6] the test system is M. tuberculosis CDC1551. Description: In vitro kill kinetics / time-kill (FIG. 2, FIG. 3). It counts as cell-based. Particulars: for rapid killing with mono-treatment: mono-treatment at 10-20 μM, 15 days, FIG. 2.
The subject of a further series is Mtb. Description: Isoniazid MIC shift on Mtb MIC plates (broth microdilution MIC). It is filed as cell-based, M. tuberculosis. The settings on record: for MIC: Mycobacterium tuberculosis.
A further series has as its system M. tuberculosis. Description: Minimum Bactericidal Concentration (MBC). It counts as cell-based. The settings on record: Mycobacterium tuberculosis.
For series [7], the system named is M. tuberculosis constitutively expressing the luxABCDE operon. Description: microbe, parasite or virus in culture. It counts as cell-based. Particulars: for MIC: Mycobacterium tuberculosis, read-out: LORA MIC of INH; for activity under low oxygen conditions: in combination with isoniazid.
In the next series the test system is RIF-R2 (ATCC35838). Description: microbe, parasite or virus in culture. It counts as cell-based. Particulars: Mycobacterium tuberculosis, single drug.
For series [8], the system named is luminescent strain of H37Rv in infected J774A.1 cells. Description: microbe, parasite or virus in culture. The settings on record: for IC50 / IC90: Mycobacterium tuberculosis, H37RV, J774.A1, single compound, 72 h treatment. It counts as cell-based, M. tuberculosis.
For series [9] the following is noted: human liver microsomes, value by Frye (Frye, S. V. 2006); cited from earlier work.
For series [10] the following is noted: 10 mg/kg IP injection once per day, seven days per week, for 40 days.
Series [11] relates to M. tuberculosis constitutively expressing the luxABCDE operon. The settings on record: isoniazid alone (Cho, S. H. et al. 2007), cited from earlier work.
The mark [12] stands for this setting: BDQ with 10 μM 6-azasteroid, read-out: Aerobic MIC of BDQ.
Where [13] appears, read: 504 h, single compound, 2-log kill in 21 days, read-out: MBC.

What is called IC50 is the concentration that inhibits the measured activity by half. A low value points to higher potency. One may read the efflux ratio as a quotient of directional permeabilities that is used to spot active efflux. What is called Papp A→B is how fast a substance crosses the layer from the apical side. As a reminder, the microsomal CLint is the capacity of the preparation to metabolise the compound, expressed as a volume cleared per time. Low readings indicate greater metabolic stability, high ones faster metabolism. The half-life is the time in which the quantity being followed falls by half. A word on the MBC: it is the lowest tested concentration that kills the bacteria rather than only halting them. Broadly, the CLint scaled is the rate of metabolic loss divided by the concentration. As a reminder, the IC90 is the concentration needed for an effect of 90%. A higher IC90 goes with a need for much substance.

T1 sequence (Q12809 whole entry): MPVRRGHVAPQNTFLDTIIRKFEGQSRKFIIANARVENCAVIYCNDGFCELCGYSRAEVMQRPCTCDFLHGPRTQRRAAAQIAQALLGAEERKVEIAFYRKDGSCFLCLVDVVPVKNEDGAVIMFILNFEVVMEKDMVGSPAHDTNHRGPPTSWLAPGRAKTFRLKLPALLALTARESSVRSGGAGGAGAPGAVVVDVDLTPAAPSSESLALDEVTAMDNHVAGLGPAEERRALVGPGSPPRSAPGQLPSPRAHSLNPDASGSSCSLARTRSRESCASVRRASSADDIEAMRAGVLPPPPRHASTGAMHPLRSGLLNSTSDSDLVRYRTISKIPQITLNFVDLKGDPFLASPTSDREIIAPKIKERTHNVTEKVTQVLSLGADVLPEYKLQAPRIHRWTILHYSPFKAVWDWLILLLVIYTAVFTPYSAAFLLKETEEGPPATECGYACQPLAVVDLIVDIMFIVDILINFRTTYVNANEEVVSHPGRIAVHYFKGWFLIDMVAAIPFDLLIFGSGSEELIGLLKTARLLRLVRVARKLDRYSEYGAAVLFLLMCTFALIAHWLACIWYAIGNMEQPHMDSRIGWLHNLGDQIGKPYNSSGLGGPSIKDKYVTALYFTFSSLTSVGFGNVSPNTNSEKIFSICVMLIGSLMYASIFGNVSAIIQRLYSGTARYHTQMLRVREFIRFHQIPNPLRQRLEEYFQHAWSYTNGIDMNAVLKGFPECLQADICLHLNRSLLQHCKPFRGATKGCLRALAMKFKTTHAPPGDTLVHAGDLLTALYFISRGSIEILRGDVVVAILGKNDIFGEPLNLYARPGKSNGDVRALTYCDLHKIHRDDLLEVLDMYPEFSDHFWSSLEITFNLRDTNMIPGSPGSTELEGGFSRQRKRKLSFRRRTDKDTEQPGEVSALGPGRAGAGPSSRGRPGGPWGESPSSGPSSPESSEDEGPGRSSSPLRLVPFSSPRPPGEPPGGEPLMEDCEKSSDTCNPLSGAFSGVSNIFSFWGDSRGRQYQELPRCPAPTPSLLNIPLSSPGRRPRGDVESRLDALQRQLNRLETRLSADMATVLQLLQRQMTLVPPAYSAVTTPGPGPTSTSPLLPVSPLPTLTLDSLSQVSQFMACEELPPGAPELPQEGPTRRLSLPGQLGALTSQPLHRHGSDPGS

Consider `CCCN1CC2C(CC[C@@]3(C)C2CC[C@@H]3C(=O)Nc2cc(C(C)(C)C)ccc2C(C)(C)C)[C@@]2(C)CCC(=O)C=C12` (stereo partly shown) [Compound 114], for which half-maximal inhibition at hERG (IC50) required 739 nM. Moreover, the efflux ratio at 2 h, 5 μM in “in vitro [1]” (Caco-2, pH 7.4, Efflux Ratio) was determined as 0.87. Also, the apparent permeability from apical to basolateral (Papp A→B) at 2 h, 5 μM in “in vitro [1]” stood at 0.85 ×10⁻⁶ cm/s. In addition, in the series “in vitro [1]” (Caco-2, pH 7.4, efflux ratio), the efflux ratio at 2 h, 5 μM is ~0.5. In addition, the “substrate for P-gp transporter” value in the series on Caco-2 cell line is recorded as “not a substrate for P-gp transporter”. Further, the “intestinal absorption suggested by Papp(A-B)” value in the series on Caco-2 cell line (human, pH 7.4) was “over 50%”. Further, the “Efflux Ratio” value with Caco-2 cell line (human, Caco-2, 2 h, 5 μM, pH 7.4) amounted to 0.48. Besides, the microsomal CLint at 2 μM in the series “in vitro [2]” stood at 73.2 µL/min/mg. Moreover, in series [3], the “Remaining Percentage with NADPH, 0 min” value is reported as 100.00%; the “Remaining Percentage with NADPH, 15 min” value came to 24.89%; the “Remaining Percentage with NADPH, 30 min” value is 4.76%; the “Remaining Percentage with NADPH, 45 min” value stood at 1.68%. Besides, in series [3], the “Remaining Percentage with NADPH, 60 min” value is 0.96%. In series [4], the half-life at 2 μM is 18.9 min. Further, the “Aerobic MIC of CLOF” value with M. tuberculosis CDC1551 [5] is reported as “NC^b”. Further, the MIC with M. tuberculosis CDC1551 [5] (setting [12]) was < 0.0015 µM. In the series on M. tuberculosis CDC1551 [6], the “effect on bactericidal activity of bedaquiline” value is reported as “improves bactericidal activity of bedaquiline” and the “rapid killing with mono-treatment” value was “no rapid killing in 15 days”. In addition, the “Isoniazid MIC shift” value in the series with Mtb is given as “+++ (>10-fold +++)”. The MBC with M. tuberculosis (setting [13]) was > 40 µM. Also, the minimum bactericidal concentration (MBC) in the series with M. tuberculosis (BDQ with 10 μM 114, read-out: MBC of BDQ) was 0.025 µM. Besides, the MBC with M. tuberculosis (INH with 13 μM 114, read-out: MBC of INH) stood at 0.7 µM. For the same molecule, the MIC in series [7] (INH with 55 μM 6-azasteroid) was determined as 2.75 µM. For the same molecule, the “activity under low oxygen conditions” value in series [7] is given as “active”.

For the molecule `C[C@H]1COc2c(N3CCN(C)CC3)c(F)cc3c(=O)c(C(=O)O)cn1c23` [Levofloxacin], the MIC in the series on RIF-R2 (ATCC35838) came out at 2.4 µM (≈ 0.867 µg/mL).

With `CC(C)(C)c1ccc(C(C)(C)C)c(NC(=O)[C@H]2CCC3C4CNC5=CC(=O)CC[C@]5(C)C4CC[C@@]32C)c1` (stereo partly shown) [Compound 100], the half-inhibitory concentration (IC50) at hERG came out at 953 nM. In the series “in vitro [1]”, the Papp A→B at 2 h, 5 μM came to 1.4 ×10⁻⁶ cm/s. The efflux ratio at 2 h, 5 μM in “in vitro [1]” (Caco-2, pH 7.4, efflux ratio) was ~0.5. Also, the “substrate for P-gp transporter” value with Caco-2 cell line was “not a substrate for P-gp transporter”. In addition, the “intestinal absorption suggested by Papp(A-B)” value in the series on Caco-2 cell line (human, pH 7.4) is “over 50%”. Further, in “in vitro [2]”, the CLint scaled at 2 μM turned out to be 37.5 mL/min/kg and the microsomal CLint at 2 μM was 29.9 µL/min/mg. Moreover, in series [3], the “Remaining Percentage with NADPH, 0 min” value was determined as 100.00%; the “Remaining Percentage with NADPH, 15 min” value is recorded as 65.83%; the “Remaining Percentage with NADPH, 30 min” value is recorded as 55.21%; the “Remaining Percentage with NADPH, 45 min” value is recorded as 48.69%. In series [3], the “Remaining Percentage with NADPH, 60 min” value stood at 37.91%. In series [4], this molecule registered a half-life at 2 μM of 46.3 min. Also, the “improvement of the potency of INH” value in series [8] (100 at 20 μM) is recorded as 10 fold. For the same molecule, in [8], inhibition was half-maximal at 3000 nM (IC50) and the IC90 is > 40000 nM. For the same molecule, in the series on M. tuberculosis CDC1551 [5], the “Aerobic MIC of CLOF” value is “NC^b”. Also, the MIC in the series with M. tuberculosis CDC1551 [5] (setting [12]) is 0.01 µM. Besides, the MIC with M. tuberculosis CDC1551 [5] (Pa (pretomanid) with 10 μM 6-azasteroid, read-out: Aerobic MIC of Pa) stood at 0.0002 µM. For the same molecule, the “rapid killing with mono-treatment” value with M. tuberculosis CDC1551 [6] is recorded as “no rapid killing in 15 days”. The T1/2 previously reported in [9] was 164 min. Further, the toxicity result in series [10] is “no toxicity was observed”. Moreover, the “Isoniazid MIC shift” value in the series with Mtb is given as “+++ (>10-fold +++)”. In the series on M. tuberculosis (INH with 12 μM 100, read-out: MBC of INH), the MBC was 0.6 µM. In addition, in series [7] (INH with 15 μM 6-azasteroid), the MIC was 0.75 µM. For the same molecule, the “activity under low oxygen conditions” value in [7] was “active”.

As to `CO[C@H]1/C=C/O[C@@]2(C)Oc3c(C)c(O)c4c(O)c(c(/C=N/N5CCN(C)CC5)c(O)c4c3C2=O)NC(=O)/C(C)=C\C=C\[C@H](C)[C@H](O)[C@@H](C)[C@@H](O)[C@@H](C)[C@H](OC(C)=O)[C@@H]1C` [Rifampicin], the MIC against RIF-R2 (ATCC35838) was > 50 µM.

As for `NNC(=O)c1ccncc1` [INH, isoniazid], the MIC was 0.6 µM (≈ 0.0823 µg/mL) against RIF-R2 (ATCC35838); 0.2 to 0.4 µM (≈ 0.0274 to 0.0549 µg/mL) in the series with M. tuberculosis CDC1551 [5] (TB drug alone, read-out: Aerobic MIC); 0.4 µM in the series with Mtb (isoniazid without 6-azasteroid, read-out: MIC for isoniazid); 0.2 to 0.4 µM in the series on Mtb (read-out: MIC for isoniazid alone). Also, the “LORA MIC” value in [11] was >128 µM; in series [11] (listed as isoniazid) it was > 128 µM. Further, the IC50 in [8] was ~1500 nM. Further, the IC90 in series [8] is > 6000 nM. The MBC with M. tuberculosis (setting [13]) is > 230 µM.
